# Read-outs that look alike come from different tables or passages of the source.
# Key:
# [1] = tested on: MCF-7 cells transduced with an empty EF1 lentiviral vector (negative control); assay: MCF-7 Stable Cell Line Viability (EF1 HA-ER-α series); type: cell-based; design: Percent inhibition compared to vehicle: concentration or dose not given beside the values; conditions: Receptor None (empty EF1 lentiviral vector); for Efficacy (Emax): Day 5 relative to Day 0; for EC50: read-out: Potency (EC50; nM)
# Text: (§1) MCF-7 Mutant ER-α Stable Cell Line Generation: MCF-7 cells stably expressing wild-type or ER-α mutants were generated by subcloning ESR1 wild-type and mutant cDNAs containing an amino terminal hemagglutinin tag into pCDH-EF1-MCS-(PGK-Puro) (referred to as EF1 HA-ER-α) and pCDH-UbC-MCS-EF1-Hygro (referred to as UbC HA-ER-α) (System Biosciences). The resulting plasmids, in addition to an empty vector negative control, were subsequently cotransfected into HEK293T cells with the pPACKH1 packaging plasmid mix (System Biosciences) according to the manufacturer's protocol. Four days post transfection lentiviral particles were purified from the cell medium, tiered and stored at −80° C. MCF-7 cells were transduced with the purified viral particles and stable cell lines were selected by growth in RPMI containing 10% FBS plus 1 μG/mL puromycin or 200 μG/mL hygromycin for pCDH-EF1-MCS-(PGK-Puro) and pCDH-UbC-MCS-EF1-Hygro, respectively.
# (§2) MCF-7 Stable Cell Line Viability: MCF-7 cells were enumerated with a hemacytometer adjusted to a concentration of 40,000 cells per mL in Phenol Free RPMI containing 10% CSS with NEAA and Sodium Pyruvate. 16 microliters of the cell suspension was added to each well of a 384 well tissue culture treated white clear bottom polystyrene plate (Corning) using a Matrix 16 channel electronic pipette. The cells were incubated overnight to allow the cells to adhere. The following day, 16 microliters of Phenol Free RPMI containing 10% CSS with NEAA and Sodium Pyruvate was added to the wells of one plate, followed by 16 μL of CellTiter-Glo (Promega, Madison Wis.) luminescent cell viability reagent using a Matrix 16 channel electronic pipette. […] The “average” of the relative luminescence units (RLUs) of the wells are considered to be the baseline value at time=zero. In addition, a 10 point, 1:5 serial dilution in DMSO (Sigma-Aldrich) was performed using Matrix 12 channel electronic pipette, including DMSO only as […]. 4 μL of each dilution was then added to 196 μL of RPMI containing 10% CSS with NEAA and Sodium Pyruvate. 16 μL of medium containing compound was added to the cells at a final concentration ranging from 10 μM to 5 pM. Compound dilution in media and subsequent addition to cells were carried out using Matrix 12 channel electronic pipettes. After 5 day compound exposure, 16 μL of CellTiter-Glo (Promega, Madison Wis.) luminescent cell viability reagent was added to the cells using a Matrix 16 channel electronic pipette. CellTiter-Glo added to 32 μL of medium without cells was used to obtain a background value. […] The relative luminescence units (RLUs) of each well were measured, and relative proliferation (fold) of each sample was determined as follows: (RLU sample−RLU background)/(RLU at T=0)=relative proliferation
# (§3) The UbC promoter is reported by the manufacturer (System Biosciences) to express low to moderate RNA levels while the EF1 promoter expresses high levels (System Biosciences).
# [2] = tested on: MCF-7 cells stably expressing EF1 HA-ER-α wild-type; assay: as above; type: cell-based; design: Percent inhibition compared to vehicle: concentration or dose not given beside the values; conditions: EF1 HA-ER-α Wild-type; for Percent inhibition compared to vehicle: 5-Day Incubation; for Efficacy (Emax): Day 5 relative to Day 0; for EC50: read-out: Potency (EC50; nM)
# Text: as §1, §2, §3
# [3] = tested on: MCF-7 cells stably expressing UbC HA-ER-α wild-type; assay: MCF-7 Stable Cell Line Viability (UbC HA-ER-α series); type: cell-based; design: Percent inhibition compared to vehicle: concentration or dose not given beside the values; conditions: UbC HA-ER-α Wild-type; for Percent inhibition compared to vehicle: 5-Day Incubation; for Efficacy (Emax): Day 5 relative to Day 0; for EC50: read-out: Potency (EC50; nM)
# Text: as §1, §2, §3
# [4] = tested on: MCF-7 cells (negative control); assay: as above; type: cell-based; design: Percent inhibition compared to vehicle: concentration or dose not given beside the values; conditions: Receptor None (MCF-7 negative control)
# Text: as §1, §2, §3
# [5] = tested on: MCF-7 cells stably expressing EF1 HA-ER-α L536P; assay: cells; type: cell-based; design: Percent inhibition compared to vehicle: concentration or dose not given beside the values; conditions: EF1 HA-ER-α L536P; for Percent inhibition compared to vehicle: 5-Day Incubation; for Efficacy (Emax): Day 5 relative to Day 0; for EC50: read-out: Potency (EC50; nM)
# Text: as §1, §2, §3
# [6] = tested on: MCF-7 cells stably expressing EF1 HA-ER-α L536R; assay: cells; type: cell-based; design: Percent inhibition compared to vehicle: concentration or dose not given beside the values; conditions: EF1 HA-ER-α L536R; for Percent inhibition compared to vehicle: 5-Day Incubation; for Efficacy (Emax): Day 5 relative to Day 0; for EC50: read-out: Potency (EC50; nM)
# Text: as §1, §2, §3
# [7] = tested on: MCF-7 cells stably expressing UbC HA-ER-α L536R; assay: cells; type: cell-based; design: Percent inhibition compared to vehicle: concentration or dose not given beside the values; conditions: UbC HA-ER-α L536R; for Efficacy (Emax): Day 5 relative to Day 0; for EC50: read-out: Potency (EC50; nM)
# Text: as §1, §2, §3
# [8] = tested on: MCF-7 cells stably expressing ER-α mutants; conditions: UbC and EF1-derived lines; agonist mode
# Experimental: Potency and efficacy of ERM 1-3 were measured in vitro in ER dependent transcriptional reporter assays and viability assays of MCF-7 cells stably expressing ER-α mutants.
# as §1
# MCF-7 Stable Cell Line Viability: MCF-7 cells were enumerated with a hemacytometer adjusted to a concentration of 40,000 cells per mL in Phenol Free RPMI containing 10% CSS with NEAA and Sodium Pyruvate. 16 microliters of the cell suspension was added to each well of a 384 well tissue culture treated white clear bottom polystyrene plate (Corning) using a Matrix 16 channel electronic pipette. The cells were incubated overnight to allow the cells to adhere. […] The “average” of the relative luminescence units (RLUs) of the wells are considered to be the baseline value at time=zero. […] The relative luminescence units (RLUs) of each well were measured, and relative proliferation (fold) of each sample was determined as follows: (RLU sample−RLU background)/(RLU at T=0)=relative proliferation
# Potency and efficacy of ERM 4-23 were measured in vitro in ER dependent transcriptional reporter assays and viability assays of MCF-7 cells stably expressing ER-α mutants.
# [9] = Antagonist Mode, +E2, 5-Day Incubation
# [10] = Antagonist Mode, −E2 (Table 27)
smiles,measurement,setting,value
CCC(=C(c1ccc(O)cc1)c1ccc(OCCN(C)C)cc1)c1ccccc1 [4-Hydroxytamoxifen],Efficacy (Emax),"[1]; Agonist Mode, −E2",1.49 ± 0.06
same,EC50,"[1]; Agonist Mode, −E2",0.531 ± 0.381 nM
same,Percent inhibition compared to vehicle,[1]; [9],60%
same,Efficacy (Emax),"[1]; Antagonist Mode, +E2",1.60 ± 0.08
same,EC50,"[1]; Antagonist Mode, +E2",2.32 ± 0.599 nM
same,EC50,[1]; [10],0.531 ± 0.381 nM
same,Percent inhibition compared to vehicle,"[2]; Agonist Mode, −E2",30%
same,Efficacy (Emax),"[2]; Agonist Mode, −E2",3.99 ± 0.38
same,EC50,"[2]; Agonist Mode, −E2",0.186 ± 0.04 nM
same,Percent inhibition compared to vehicle,"[2]; Antagonist Mode, +E2",40%
same,Efficacy (Emax),"[2]; Antagonist Mode, +E2",4.05 ± 0.36
same,EC50,"[2]; Antagonist Mode, +E2",5.16 ± 0.137 nM
same,EC50,[2]; [10],0.186 ± 0.04 nM
same,Percent inhibition compared to vehicle,"[3]; Agonist Mode, −E2",14%
same,Efficacy (Emax),"[3]; Agonist Mode, −E2",1.58 ± 0.16
same,EC50,"[3]; Agonist Mode, −E2",0.626 ± 0.528 nM
same,Percent inhibition compared to vehicle,"[3]; Antagonist Mode, +E2",68%
same,Efficacy (Emax),"[3]; Antagonist Mode, +E2",1.57 ± 0.08
same,EC50,"[3]; Antagonist Mode, +E2",2.95 ± 2.51 nM
same,Percent inhibition compared to vehicle,"[4]; Agonist Mode, −E2, 5-Day Incubation",19%
same,Efficacy (Emax),"[4]; Agonist Mode, −E2, Day 5 relative to Day 0",1.42 ± 0.43
same,EC50,"[4]; Agonist Mode, −E2, read-out: Potency (EC50; nM)",263 ± 525 nM
same,Percent inhibition compared to vehicle,[4]; [9],58%
same,Efficacy (Emax),"[4]; Antagonist Mode, +E2, Day 5 relative to Day 0",1.34 ± 0.07
same,EC50,"[4]; Antagonist Mode, +E2, read-out: Potency (EC50; nM)",2.47 ± 1.78 nM
same,Percent inhibition compared to vehicle,"[5]; Agonist Mode, −E2",58%
same,Efficacy (Emax),"[5]; Agonist Mode, −E2",3.47 ± 0.03
same,EC50,"[5]; Agonist Mode, −E2",4.39 ± 0.723 nM
same,Percent inhibition compared to vehicle,"[5]; Antagonist Mode, +E2",60%
same,Efficacy (Emax),"[5]; Antagonist Mode, +E2",3.64 ± 0.26
same,EC50,"[5]; Antagonist Mode, +E2",9.22 ± 0.546 nM
same,EC50,[5]; [10],4.39 ± 0.723 nM
same,Percent inhibition compared to vehicle,"[6]; Agonist Mode, −E2",43%
same,Efficacy (Emax),"[6]; Agonist Mode, −E2",3.91 ± 0.04
same,EC50,"[6]; Agonist Mode, −E2",7.14 ± 6.64 nM
same,Percent inhibition compared to vehicle,"[6]; Antagonist Mode, +E2",47%
same,Efficacy (Emax),"[6]; Antagonist Mode, +E2",3.65 ± 0.29
same,EC50,"[6]; Antagonist Mode, +E2",19 ± 18.2 nM
same,EC50,[6]; [10],7.14 ± 6.64 nM
same,Efficacy (Emax),"[7]; Agonist Mode, −E2",2.26 ± 0.36
same,EC50,"[7]; Agonist Mode, −E2",1.06 ± 0.714 nM
same,Percent inhibition compared to vehicle,[7]; [9],61%
same,Efficacy (Emax),"[7]; Antagonist Mode, +E2",2.34 ± 0.18
same,EC50,"[7]; Antagonist Mode, +E2",6.09 ± 4.42 nM
same,efficacy compared with fulvestrant and ERM 4-23 (in words),[8],reduced efficacy on all the mutations tested
